Data on 19 molecules can be found in patent US10092584B2 (Achillion Pharmaceuticals, Inc., priority 2015, dated 2018).

Each structure is given as a SMILES string. Where a name gives a salt, the structure may show the parent alone.

T1 sequence (P00746 26-253): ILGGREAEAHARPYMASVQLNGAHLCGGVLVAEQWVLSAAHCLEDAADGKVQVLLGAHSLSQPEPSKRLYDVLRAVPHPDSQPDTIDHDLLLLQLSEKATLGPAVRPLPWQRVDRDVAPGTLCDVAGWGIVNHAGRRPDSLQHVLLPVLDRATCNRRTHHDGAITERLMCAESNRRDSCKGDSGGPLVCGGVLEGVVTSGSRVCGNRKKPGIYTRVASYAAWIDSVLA

One experiment concerns the target T1, Human Factor D (Homo sapiens, UniProt P00746).
T1 construct: purified from human serum; purchased Complement Technology, Inc; host or cells: human serum
The experiment in a line: Human Factor D assay (Example 8). Format: biochemical.
Details: not given
In short, it runs like this:
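IC50 values derive from nonlinear regression of Factor D reaction rates against compound concentration. The enzyme, purified from human serum, is used at 80 nM final with a 5 min room-temperature compound preincubation in 50 mM Tris, 1M NaCl, pH 7.5, before 100 μM Z-L-Lys-SBzl plus 100 μM DTNB are added.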
In turn, `CC(=O)c1cn(CC(=O)N2C[C@H](F)C[C@H]2C(=O)Nc2cccc(Br)n2)c2ccc(C3(NC(=O)c4ncccn4)CC3)cc12` [Compound 119, N-(1-(3-acetyl-1-(2-((2S,4R)-2-(6-bromopyridin-2-ylcarbamoyl)-4-fluoropyrrolidin-1-yl)-2-oxoethyl)-1H-indol-5-yl)cyclopropyl) pyrimidine-2-carboxamide] came in with a concentration for half-maximal inhibition (IC50) below 1000 nM. On to `NC(=O)c1nn(CC(=O)N2C[C@H](F)C[C@H]2C(=O)Nc2cccc(-c3cc(OC(F)(F)F)ccc3Cl)c2F)c2ccccc12` [Compound 120, 1-(2-((2S,4R)-2-(2′-chloro-2-fluoro-5′-(trifluoromethoxy)biphenyl-3-ylcarbamoyl)-4-fluoropyrrolidin-1-yl)-2-oxoethyl)-1H-indazole-3-carboxamide], for which the half-maximal inhibitory concentration (IC50) was below 1000 nM. Still for that read-out and setting: the result for `NC(=O)c1cn(CC(=O)N2C[C@H](F)C[C@H]2c2nc3cc(-c4ccccc4Cl)ccc3[nH]2)c2ccccc12` [Compound 121, 1-(2-((2S,4R)-2-(5-(2-chlorophenyl)-1H-benzo[d]imidazol-2-yl)-4-fluoropyrrolidin-1-yl)-2-oxoethyl)-1H-indole-3-carboxamide] reads above 10000 nM; that for `NC(=O)c1nn(CC(=O)N2C[C@H](F)C[C@H]2C(=O)Nc2cccc(-c3ccc4[nH]cnc4c3Cl)c2F)c2ccccc12` [Compound 122, 1-(2-((2S,4R)-2-(3-(4-chloro-1H-benzo[d]imidazol-5-yl)-2-fluorophenylcarbamoyl)-4-fluoropyrrolidin-1-yl)-2-oxoethyl)-1H-indazole-3-carboxamide], below 1000 nM.

With `CC(=O)c1cn(CC(=O)N2C[C@H](F)C[C@H]2C(=O)Nc2cccc(Br)n2)c2ccc(C3(NC(=O)OC(C)(C)C)CC3)cc12` [Compound 123, tert-butyl 1-(3-acetyl-1-(2-((2S,4R)-2-(6-bromopyridin-2-ylcarbamoyl)-4-fluoropyrrolidin-1-yl)-2-oxoethyl)-1H-indol-5-yl)cyclopropyl-carbamate], the IC50 is below 1000 nM. As for `CC(=O)c1cn(CC(=O)N2C[C@H](F)C[C@H]2C(=O)Nc2cccc(-c3ccccc3Cl)c2F)c2c(C#Cc3ncc(F)cn3)cccc12` [Compound 124, (2S,4R)-1-(2-(3-acetyl-7-((5-fluoropyrimidin-2-yl)ethynyl)-1H-indol-1-yl)acetyl)-N-(2′-chloro-2-fluorobiphenyl-3-yl)-4-fluoropyrrolidine-2-carboxamide], the IC50 was below 1000 nM.

The same experiment, now with this note: Table 1; Human Factor D 80 nM, substrate Z-L-Lys-SBzl; read-out: IC50.
`CC(=O)c1cn(CC(=O)N2C[C@H](F)C[C@H]2C(=O)Nc2cccc(Br)n2)c2ccc(C3(NC(=O)c4cncnc4)CC3)cc12` [Compound 126, N-(1-(3-acetyl-1-(2-((2S,4R)-2-(6-bromopyridin-2-ylcarbamoyl)-4-fluoropyrrolidin-1-yl)-2-oxoethyl)-1H-indol-5-yl)cyclopropyl) pyrimidine-5-carboxamide]: the IC50 is below 1000 nM.

Still in this experiment, the particulars now being: Table 2; Human Factor D 80 nM, substrate Z-L-Lys-SBzl; read-out: IC50.
As to `COC(=O)c1cc2c(s1)c(C(N)=O)nn2CC(=O)N1C[C@H](F)C[C@H]1C(=O)Nc1cccc(-c2ccccc2Cl)c1F` [Compound 129, methyl 3-carbamoyl-1-(2-((2S,4R)-2-(2′-chloro-2-fluorobiphenyl-3-ylcarbamoyl)-4-fluoropyrrolidin-1-yl)-2-oxoethyl)-1H-thieno[3,2-c]pyrazole-5-carboxylate], the IC50 was below 1000 nM. The same measure, in the same setting: to `NC(=O)c1nn(CC(=O)N2C[C@H](F)C[C@H]2C(=O)Nc2cccc(-c3cc(F)c(F)cc3Cl)c2F)c2ccc(Br)cc12` [Compound 130, 5-bromo-1-(2-((2S,4R)-2-(2′-chloro-2,4′,5′-trifluorobiphenyl-3-ylcarbamoyl)-4-fluoropyrrolidin-1-yl)-2-oxoethyl)-1H-indazole-3-carboxamide] belongs below 1000 nM.

For `CC(=O)c1nn(CC(=O)N2C[C@H](F)C[C@H]2C(=O)Nc2cccc(-c3ccccc3Cl)c2F)c2cc(C)sc12` [Compound 131, (2S,4R)-1-(2-(3-acetyl-5-methyl-1H-thieno[3,2-c]pyrazol-1-yl)acetyl)-N-(2′-chloro-2-fluorobiphenyl-3-yl)-4-fluoropyrrolidine-2-carboxamide], the IC50 was below 1000 nM.

Consider `NC(=O)c1nn(CC(=O)N2C[C@H](F)C[C@H]2C(=O)Nc2cccc(-c3ccccc3Cl)c2F)c2cc(C(=O)O)sc12` [Compound 132, 3-carbamoyl-1-(2-((2S,4R)-2-(2′-chloro-2-fluorobiphenyl-3-ylcarbamoyl)-4-fluoropyrrolidin-1-yl)-2-oxoethyl)-1H-thieno[3,2-c]pyrazole-5-carboxylic acid], for which the IC50 is below 1000 nM. Still for that read-out and setting: to `O=C(NCc1cccc(Cl)c1F)[C@@H]1C[C@@H](F)CN1C(=O)Cn1cc(-c2cnco2)c2ccccc21` [Compound 133, (2S,4R)-N-(3-chloro-2-fluorobenzyl)-4-fluoro-1-(2-(3-(oxazol-5-yl)-1H-indol-1-yl)acetyl) pyrrolidine-2-carboxamide] belongs below 1000 nM.

In the case of `NC(=O)c1nn(CC(=O)N2CC(=O)C[C@H]2C(=O)Nc2cccc(-c3ccccc3Cl)c2F)c2ccccc12` [Compound 134, (S)-1-(2-(2-(2′-chloro-2-fluorobiphenyl-3-ylcarbamoyl)-4-oxopyrrolidin-1-yl)-2-oxoethyl)-1H-indazole-3-carboxamide], the IC50 is below 1000 nM. In the case of `NC(=O)c1nn(CC(=O)N2C(=O)CC[C@H]2C(=O)Nc2cccc(-c3ccccc3Cl)c2F)c2ccccc12` [Compound 135, (S)-1-(2-(2-((2′-Chloro-2-fluoro-[1,1′-biphenyl]-3-yl)carbamoyl)-5-oxopyrrolidin-1-yl)-2-oxoethyl)-1H-indazole-3-carboxamide], the IC50 was below 1000 nM. On to `NC(=O)c1nn(CC(=O)N2C[C@H](F)C[C@H]2C(=O)Nc2nc3cccc(Cl)c3[nH]2)c2ccccc12` [Compound 136, 1-(2-((2S,4R)-2-(7-chloro-1H-benzo[d]imidazol-2-ylcarbamoyl)-4-fluoropyrrolidin-1-yl)-2-oxoethyl)-1H-indazole-3-carboxamide], for which the IC50 was below 1000 nM. On the same count and under the same terms, the result for `NC(=O)c1nn(CC(=O)N2C[C@H](F)C[C@H]2C(=O)Nc2cccc(-c3ccccc3Cl)c2F)c2c(Cl)c(Cl)sc12` [Compound 137, 5,6-Dichloro-1-(2-((2S,4R)-2-((2′-chloro-2-fluoro-[1,1′-biphenyl]-3-yl)carbamoyl)-4-fluoropyrrolidin-1-yl)-2-oxoethyl)-1H-thieno[3,2-c]pyrazole-3-carboxamide] reads below 1000 nM; that for `CC(=O)c1nn(CC(=O)N2C[C@H](F)C[C@H]2C(=O)Nc2cccc(-c3ccccc3Cl)c2F)c2cc(C(=O)O)sc12` [Compound 138], below 1000 nM. For `NC(=O)c1nn(CC(=O)N2C[C@H](F)C[C@H]2C(=O)Nc2cccc(-c3ccccc3Cl)c2F)c2cc(Cl)sc12` [Compound 139, 5-Chloro-1-(2-((2S,4R)-2-((2′-chloro-2-fluoro-[1,1′-biphenyl]-3-yl)carbamoyl)-4-fluoropyrrolidin-1-yl)-2-oxoethyl)-1H-thieno[3,2-c]pyrazole-3-carboxamide], the IC50 was below 1000 nM. For the molecule `NCC(=O)c1ccc(Cl)c(-c2cccc(NC(=O)[C@@H]3C[C@@H](F)CN3C(=O)Cn3nc(C(N)=O)c4ccccc43)c2F)c1` [Compound 140, 1-(2-((2S,4R)-2-((2′-Chloro-2-fluoro-5′-glycyl-[1,1′-biphenyl]-3-yl)carbamoyl)-4-fluoropyrrolidin-1-yl)-2-oxoethyl)-1H-indazole-3-carboxamide hydrochloride], the IC50 was below 1000 nM.

The term IC50 denotes the concentration that inhibits the measured activity by half.
